Results as given in patent US5561228A, “Macrocyclic immunomodulators” (Abbott Laboratories, priority 1994, dated 1996).

These molecules were tested on human mixed lymphocyte reaction (MLR) (assay: human mixed lymphocyte reaction (MLR) assay). Conditions: immunosuppressant activity, Table 1.
Type: cell-based
Protocol: The immunosuppressant activity of the compounds of the present invention was determined using the human mixed lymphocyte reaction (MLR) assay described by Kino, T. et al. in Transplantation Proceedings, XIX(5):36-39,Suppl. 6 (1987).

Row | SMILES | IC50
1 | CC[C@@H]1/C=C(\C)C[C@H](C)C[C@H](OC)[C@H]2O[C@@](O)(C(=O)C(=O)N3CCCC[C@H]3C(=O)O[C@H](/C(C)=C/[C@@H](CC=NO)CCC#N)[C@H](C)[C@@H](O)CC1=O)[C@H](C)C[C@@H]2OC [Example 419] | < 1 µM
2 | CC[C@@H]1/C=C(\C)C[C@H](C)C[C@H](OC)[C@H]2O[C@@](O)(C(=O)C(=O)N3CCCC[C@H]3C(=O)O[C@H](/C(C)=C/[C@@H](CCO)CCC#N)[C@H](C)[C@@H](O)CC1=O)[C@H](C)C[C@@H]2OC [Example 425] | < 1 µM
3 | CC[C@@H]1/C=C(\C)C[C@H](C)C[C@H](OC)[C@H]2O[C@@](O)(C(=O)C(=O)N3CCCC[C@H]3C(=O)O[C@H](/C(C)=C/[C@@H](CC=NN(C)C)CCC#N)[C@H](C)[C@@H](O)CC1=O)[C@H](C)C[C@@H]2OC [Example 417] | < 1 µM
4 | CC[C@@H]1/C=C(\C)C[C@H](C)C[C@H](OC)[C@H]2O[C@@](O)(C(=O)C(=O)N3CCCC[C@H]3C(=O)O[C@H](/C(C)=C/[C@@H](CC=NOCC(=O)O)CCC#N)[C@H](C)[C@@H](O)CC1=O)[C@H](C)C[C@@H]2OC [Example 421] | < 1 µM
